Test results as given in patent US20040127403A1, “Methods for treating and preventing Gram-positive bacteremias” (priority 2002, published 2004).

Columns and labels:
[1] = Single dose study in healthy male volunteers: absorption and fecal recovery; format: in vivo, human
Protocol: The absorption, tolerability, and recovery of ramoplanin following single dose oral administration were investigated in male volunteers. Ramoplanin was administered as an aqueous solution at a dose of 100, 200, 500, or 1000 mg to fasting subjects. Serum samples were obtained prior to drug administration of ramoplanin and 0.5, 1, 2, 3, 6, 9, 12, 24, 48, 72, and 96 hours after treatment. Urine samples were collected prior to administration of ramoplanin and over the periods 0-3, 3-6, 6-12, 12-24, 24-48, 48-72, and 72-96 hours after dosing. Fecal samples were collected prior to dosing and over the periods 0-16 (Day 1), 16-40 (Day 2), 40-64 (Day 3), 64-88 (Day 4), and 88-96 (Day 5) hours after dosing. A microbiological assay employing Bacillis subtilis ATCC 6633 as the test organism was used to determine ramoplanin concentrations in serum, urine, and feces. The limits of quantitation for this assay were 0.02 μg/mL in serum, 0.012 μg/mL in urine, and 3 μg/g in feces. Tolerability was assessed on the basis of clinical signs and symptoms and the results of blood and urine laboratory tests.

[2] = system: Gram-negative bacteria (enteric bacteria and Bacteroides spp.) or yeast; test: Multiple dose study: activity on stool microflora, Gram-negative bacteria and yeast; format: in vivo, human; details: healthy male volunteers, oral 200, 400, 800 mg B.I.D. 10 days
Protocol: (§1) Healthy male volunteers were administered 200, 400, or 800 mg ramoplanin twice-a-day, for ten consecutive days. The predetermined dose was reconstituted in 5 mL water per vial, mixed with 50 mL of sweetened, aromatized solution, and immediately administered orally to the subjects.
(§2) The antibacterial activity of ramoplanin on the stool microflora was assessed in a subset of the subjects. Microbial concentrations (i.e., the number of organisms per gram of fecal matter) were determined at the following time points: Day-4 (pre-treatment), Days 4 and 10 (treatment), and Days […] and 24 (follow-up). Tolerability and absorption were also investigated.

[3] = system: VRE; test: Time-kill studies against VRE; format: cell-based
[4] = Oral bioavailability and pharmacokinetics in the rat; format: in vivo
Protocol: The oral availability of ramoplanin was assessed by comparing a 1000 mg/kg oral dose with a 5 mg/kg intravenous dose in the rat. […] The mean absorption time was 3.4 hours. […] Terminal elimination half-lives were 3.5 and 5.9 hours for the intravenous and oral doses, respectively. […] In intravenously treated rats, the amount excreted in urine represented less than 0.01% of the administered dose.

[5] = system: Clostridium spp.; test: Multiple dose study: activity on stool microflora, Clostridium; format: in vivo, human
Protocol: as §1, §2

[6] = system: VRE; test: Multiple dose study in asymptomatic carriers of intestinal VRE; format: in vivo, human; details: for patients with no detectable VRE, number / patients with no detectable VRE: Day 7; for patients with no detectable VRE: rectal swab; for patients VRE free: Day 14 (seven days after cessation); for patients VRE free, number: Day 14
Protocol: Patients identified as asymptomatic carriers of VRE were administered placebo or one of two dosages (100 mg, 400 mg) of ramoplanin b.i.d. (twice daily) for seven days. Patients were assessed by rectal swab on Days 7, 14, and 21 to determine the presence or absence of VRE. On Days 45 and 90, stool samples were analyzed for long-term effects of ramoplanin on the recurrence of, or re-infection with, VRE. All VRE isolates were tested for susceptibility to ramoplanin.

[7] = In vitro interaction of ramoplanin with human intestinal contents
Text: The in vitro interaction of ramoplanin with human intestinal contents was studied. […] The binding and the subsequent release of ramoplanin from feces would likely result in long-lasting concentrations in the intestinal tract.

[8] = Bioavailability and serum pharmacokinetics in Beagle dogs; format: in vivo
Protocol: The bioavailability of a 300 mg/kg ramoplanin oral gelatin capsule and the serum pharmacokinetics of a 5 mg/kg intravenous dose were examined in four male Beagle dogs.

Ramoplanin
subjects with ramoplanin still detectable in feces ([1]; fourth day of study, single oral dose): 17 of 24
ramoplanin in serum/plasma or urine ([1]; healthy male volunteers, single oral doses up to 1000 mg and multiple oral doses 200, 400, 800 mg B.I.D. 10 days, bioassay and HPLC): not detected
Mean cumulative recovery of ramoplanin in feces ([1]; single oral dose 100 mg): 67.7 % of the administered dose
Mean maximum concentration in feces ([1]; single oral dose 100 mg): 214 µg/g
cumulative recovery of ramoplanin in feces, range ([1]; single oral dose 100 mg): 55.7-84 % of the administered dose
maximum concentration in feces, range ([1]; single oral dose 100 mg): 148 to 278 µg/g
Mean cumulative recovery of ramoplanin in feces ([1]; single oral dose 200 mg): 48.5 % of the administered dose
Mean maximum concentration in feces ([1]; single oral dose 200 mg): 287 µg/g
cumulative recovery of ramoplanin in feces, range ([1]; single oral dose 200 mg): 39.3-56.5 % of the administered dose
maximum concentration in feces, range ([1]; single oral dose 200 mg): 164 to 454 µg/g
Mean cumulative recovery of ramoplanin in feces ([1]; single oral dose 500 mg): 52.8 % of the administered dose
Mean maximum concentration in feces ([1]; single oral dose 500 mg): 1655 µg/g
cumulative recovery of ramoplanin in feces, range ([1]; single oral dose 500 mg): 41.3-79.6 % of the administered dose
maximum concentration in feces, range ([1]; single oral dose 500 mg): 737 to 3316 µg/g
Mean cumulative recovery of ramoplanin in feces ([1]; single oral dose 1000 mg): 46.4 % of the administered dose
Mean maximum concentration in feces ([1]; single oral dose 1000 mg): 1835 µg/g
cumulative recovery of ramoplanin in feces, range ([1]; single oral dose 1000 mg): 39.9-58.4 % of the administered dose
maximum concentration in feces, range ([1]; single oral dose 1000 mg): 1336 to 3154 µg/g
time of maximum ramoplanin concentration and maximum percentage recovery in feces ([1]; single oral dose 100-1000 mg): the day after administration (Day 2)
effect on Gram-negative flora / yeast in stool [2]: not effective
effect on Gram-negative flora / yeast in stool ([2]; listed as ramoplanin): no effect
time-kill activity [3]: bactericidal activity
amount excreted in urine ([4]; intravenously treated rats): less than 0.01 % of the administered dose
distribution ([4]; rat): not widely distributed outside the central compartment
volume of distribution at steady state ([4]; rat): 0.75 L/kg
volume of the central compartment ([4]; rat): 0.42 L/kg
time of maximum observed serum concentration ([4]; rat, 5 mg/kg intravenous): 0.083 h
Maximum observed serum concentration ([4]; rat, 1000 mg/kg oral): 2.8 µg/mL
mean absorption time ([4]; rat, 1000 mg/kg oral): 3.4 h
time of maximum observed serum concentration ([4]; rat, 1000 mg/kg oral): 0.5 h
absolute bioavailability (F) ([4]; rat, 1000 mg/kg oral relative to 5 mg/kg intravenous): 0.18%
Terminal elimination half-life ([4]; rat, intravenous dose): 3.5 h
Terminal elimination half-life ([4]; rat, oral dose): 5.9 h
subjects with Clostridium spp. concentration reduced below detectable levels ([5]; multiple dose study, stool microflora subset): 10 of 12
clostridial load ([5]; two subjects carrying ramoplanin- and vancomycin-resistant Clostridium spp. (C. rectum and C. beijerinckii) before treatment): no variation
patients with no detectable VRE, number ([6]; 100 mg b.i.d. for seven days): 17 of 21
patients with no detectable VRE ([6]; 100 mg b.i.d. for seven days): 81.0%
patients with no detectable VRE, number ([6]; 400 mg b.i.d. for seven days): 18 of 20
patients with no detectable VRE ([6]; 400 mg b.i.d. for seven days): 90.0%
patients VRE free ([6]; 100 mg b.i.d.): 28.6%
patients VRE free ([6]; 400 mg b.i.d.): 41.2%
patients VRE free, number ([6]; 100 mg b.i.d.): 6 of 21
patients VRE free, number ([6]; 400 mg b.i.d.): 7 of 17
number of VRE-free patients ([6]; Day 21): comparable among all treatment groups
binding to feces [7]: bind reversibly to solid components of feces
microbiological activity in feces [7]: microbiologically active in feces
distribution to tissues [8]: not distributed widely to tissues
mean absorption time ([8]; 300 mg/kg oral gelatin capsule): 8.19 ± 3.12 h
absolute bioavailability ([8]; 300 mg/kg oral gelatin capsule vs 5 mg/kg intravenous): less than 1%
